Among the data in patent US4713378A, “Penem derivatives” (Farmitalia Carlo Erba S.p.A., priority 1984, dated 1987) are MIC values, retold here.

≈ marks a conversion by molar mass, not a printed value. Like-named read-outs stand apart in the source and are kept apart here.

Common to all, as to format: cell-based
For test [1], the system named is Staphylococcus aureus Smith. The experiment in a line: antibacterial in vitro activity (MIC), Staphylococcus aureus Smith. An excerpt: (§1) Comparison between the antibacterial in vitro activity
(§2) (MIC, μg/ml) of compound "5" and two reference drugs: […]

The test system of test [2] is Staphylococcus aureus 209 P. The experiment in a line: antibacterial in vitro activity (MIC), Staphylococcus aureus 209 P.
Source text: as §1, §2

Test [3] relates to Streptococcus pyogenes ATCC 12384. Nature of the test: antibacterial in vitro activity (MIC), Streptococcus pyogenes ATCC 12384. The settings on record: ATCC12384; Streptococcus pyogenes ATCC 12384, in vitro.
Source text: as §1, §2

Test [4] concerns Klebsiella aerogenes 1082E (β-lact.+). The experiment in a line: antibacterial in vitro activity (MIC), Klebsiella aerogenes 1082E (β-lact.+).
Source text: as §1, §2

For test [5], the system named is Enterobacter cloacae P 99 (β-lact.+). The experiment in a line: antibacterial in vitro activity (MIC), Enterobacter cloacae P 99 (β-lact.+).
Source text: as §1, §2

Test [6] relates to Escherichia coli B Cef. R (β-lact.+). The experiment in a line: antibacterial in vitro activity (MIC), Escherichia coli B Cef. R (β-lact.+).
Source text: as §1, §2

The test system of test [7] is Escherichia coli 026:B6 Cef R. Nature of the test: antibacterial in vitro activity (MIC), Escherichia coli 026:B6 Cef R.
Source text: as §1, §2

In test [8] the test system is Salmonella typhimurium ATCC 14028. Nature of the test: antibacterial in vitro activity (MIC), Salmonella typhimurium ATCC 14028. The settings on record: Salmonella enterica; Salmonella typhimurium ATCC 14028, in vitro.
Source text: as §1, §2

Test [9] deals with Shigella flexneri ATCC 11836. The experiment in a line: antibacterial in vitro activity (MIC), Shigella flexneri ATCC 11836. The settings on record: ATCC11836; Shigella flexneri ATCC 11836, in vitro.
Source text: as §1, §2

Test [10] relates to Proteus morganii ATCC 25830. The experiment in a line: antibacterial in vitro activity (MIC), Proteus morganii ATCC 25830. The settings on record: Morganella morganii, ATCC25830; Proteus morganii ATCC 25830, in vitro.
Source text: as §1, §2

Test [11] concerns Citrobacter freundii ATCC 8090. Nature of the test: antibacterial in vitro activity (MIC), Citrobacter freundii ATCC 8090. Conditions: ATCC8090; Citrobacter freundii ATCC 8090, in vitro.
Source text: as §1, §2

Test [12] has as its system Pseudomonas aeruginosa ATCC 19660. The experiment in a line: antibacterial in vitro activity (MIC), Pseudomonas aeruginosa ATCC 19660. The settings on record: ATCC19660; Pseudomonas aeruginosa ATCC 19660, in vitro.
Source text: as §1, §2

In test [13] the test system is Serratia marcescens ATCC 2902. The experiment in a line: antibacterial in vitro activity (MIC), Serratia marcescens ATCC 2902. Conditions: ATCC2902; Serratia marcescens ATCC 2902, in vitro.
Source text: as §1, §2

Test [14] relates to Enterobacter cloacae 1321 E. The experiment in a line: antibacterial in vitro activity (MIC), Enterobacter cloacae 1321 E.
Source text: as §1, §2

For test [15], the system named is Escherichia coli B. Nature of the test: antibacterial in vitro activity (MIC), Escherichia coli B.
Source text: as §1, §2

Test [16] deals with Escherichia coli 026:B6. The experiment in a line: antibacterial in vitro activity (MIC), Escherichia coli 026:B6. Conditions: Escherichia coli 026:B6, in vitro.
Source text: as §1, §2

Test [17] deals with Proteus mirabilis FI 7474. The experiment in a line: antibacterial in vitro activity (MIC), Proteus mirabilis FI 7474. Conditions: FI7474; Proteus mirabilis FI 7474, in vitro.
Source text: as §1, §2

[18] abbreviates: Staphylococcus aureus 209 P, in vitro, read-out: MIC.
Setting [19] is: Enterobacter cloacae P 99 (β-lact.+), in vitro, read-out: MIC.

For the compound `CC(=O)OCC1=C(C(=O)O)N2C(=O)[C@H]([C@@H](C)O)[C@H]2S1` [FCE 21420], the MIC stood at 0.023 µg/mL (≈ 0.0801 µM) in test [1]; 0.045 µg/mL (≈ 0.157 µM) in [2] (setting [18]); 0.045 µg/mL (≈ 0.157 µM) in test [3]; 0.78 µg/mL (≈ 2.71 µM) in [4]; 3.12 µg/mL (≈ 10.9 µM) in test [5] (Enterobacter cloacae); 0.39 µg/mL (≈ 1.36 µM) in [6]. For the same compound, the minimum inhibitory concentration (MIC) in [7] is 3.12 µg/mL (≈ 10.9 µM); in test [8], 0.39 µg/mL (≈ 1.36 µM); in test [9], 0.39 µg/mL (≈ 1.36 µM); in test [10], 0.78 µg/mL (≈ 2.71 µM); in [11], 0.78 µg/mL (≈ 2.71 µM); in test [12], above 50 µg/mL. The same compound displayed a minimal inhibitory concentration (MIC) in test [13] of 3.1 µg/mL (≈ 10.8 µM).
As for `C[C@@H](O)[C@H]1C(=O)N2C(C(=O)[O-])=C(C[N+]3(C)CCCC3)S[C@H]12` [Compound 5, (5R,6S)-6-[(1R)-hydroxyethyl]-2-[1-(1-methylpyrrolidinio)]-methylpenem-3-carboxylate], the MIC in test [1] was below 0.005 µg/mL; in test [2] (setting [18]), below 0.005 µg/mL; in test [3], below 0.005 µg/mL; in test [4], 0.045 µg/mL (≈ 0.144 µM); in test [14], 0.045 µg/mL (≈ 0.144 µM); in test [5] (setting [19]), 0.045 µg/mL (≈ 0.144 µM). Further, the MIC in test [15] is 0.045 µg/mL (≈ 0.144 µM); in test [6] it was 0.045 µg/mL (≈ 0.144 µM); in test [16] it was 0.005 µg/mL (≈ 0.016 µM); in test [8] it was 0.045 µg/mL (≈ 0.144 µM); in [9] it was 0.045 µg/mL (≈ 0.144 µM); in test [17], 0.19 µg/mL (≈ 0.608 µM). For the same compound, the MIC in [10] came to 0.38 µg/mL (≈ 1.22 µM); in test [11] it was 0.09 µg/mL (≈ 0.288 µM); in test [12] it was 25 µg/mL (≈ 80 µM); in test [13], 0.78 µg/mL (≈ 2.5 µM).
Regarding `CO/N=C(\C(=O)N[C@@H]1C(=O)N2C(C(=O)O)=C(COC(C)=O)CS[C@H]12)c1csc(N)n1` [Cefotaxime], the MIC in [1] is 0.78 µg/mL (≈ 1.71 µM); in test [2] (Staphylococcus aureus, 209P) it was 1.56 µg/mL (≈ 3.43 µM); in test [3], 0.78 µg/mL (≈ 1.71 µM); in [4], 3.12 µg/mL (≈ 6.85 µM); in test [5] (setting [19]), above 100 µg/mL; in test [15], 0.011 µg/mL (≈ 0.0242 µM). For the same compound, the MIC in test [6] is 0.19 µg/mL (≈ 0.417 µM); in test [16], 0.78 µg/mL (≈ 1.71 µM); in test [7], 1.56 µg/mL (≈ 3.43 µM); in test [8], 0.045 µg/mL (≈ 0.0988 µM); in test [9], 0.023 µg/mL (≈ 0.0505 µM); in test [10] it was 0.011 µg/mL (≈ 0.0242 µM). This compound came in with an MIC in test [12] of 12 µg/mL (≈ 26.3 µM).

What is called MIC is the smallest concentration in the dilution series that meets the test's criterion for growth inhibition.
